“Also recorded” adds a separate entry of the source.
How the values were obtained:
C3a and sC5b-9 = C3a and sC5b-9 generation in supernatants of plasma-incubated human islets (ELISA); format: cell-based
Protocol: (§1) Analysis of islets by COPAS and confocal microscopy: Approximately 5000 islets were added to 200 μl of human AB0-compatible hirudin-plasma or whole blood in heparinized test tubes. In some experiments, AB0-compatible hirudin-treated plasma was pre-incubated with or without 10 μM Ac-ICV(1MeW)[…]-NH2 (SEQ ID NO: 4; Katragadda et al., (2006) J Med Chem 49:4616-4622), a potent compstatin analog, for 15 minutes at 37° C. before the islets were added. The mixture of islets and plasma was incubated, with gentle shaking, at 37° C. for up to 30 minutes.
(§2) After centrifugation and addition of 10 mM EDTA (final concentration), the supernatants were stored at −70° C. The remaining islets were washed twice in cold PBS as described above. […]
C3a: Plasma was diluted 1/1000 in working buffer and analyzed as described previously (Enkdahl et al., 1992, Scand J Immunol 35: […]). […] Bound C3a was detected with biotinylated rabbit anti-C3a diluted 1/150, followed by HRP-conjugated streptavidin (Amersham, Little Chalfort, UK), diluted 1/500. […]
sC5b-9: Plasma was analyzed using a modification of the EIA described by Mollnes et al., 1985, Scand J Immunol 22: 197-202. Plasma diluted 1/5 was added to microtiter plates coated with anti-neoC9 monoclonal antibody MCaE11. sC5b-9 was detected with a polyclonal anti-C5 antibody diluted 1/500 (Dako A/S, Denmark), followed by HRP-conjugated anti-rabbit Ig diluted 1/500 (Dako). […]

[1] = Blood cell counts, liver and renal function in monkeys transplanted with porcine islets; format: in vivo, Cynomolgus monkeys (Macaca fascicularis); conditions: 24 hours after islet transplantation; in U/L (unit assumed)
[2] = Plasma APTT and LMW-DS concentration in transplanted monkeys; format: in vivo, Cynomolgus monkeys (Macaca fascicularis)
Protocol: Blood samples: […] […] Analyses of blood and plasma samples: Activated Partial Thromboplastin Time (APTT) measurements were performed as previously described (Johansson et al., (2006) Am J. Transplant. 6 (2): 305).

porcine islet grafts [3] = assay: Histological evaluation of grafted pig islets 24 h after intraportal transplantation
human islets [4] = assay: Binding of C3b/iC3b to human islets incubated in AB0-compatible hirudin-treated plasma (COPAS, confocal microscopy); format: cell-based
Protocol: (§3) Complex object parametric analyzer and sorter (COPAS) analysis: The fluorescence-stained islets were analyzed using a complex object parametric analyzer and sorter (COPAS; Union Biometrica, Somerville, Mass.), which is a large-particle-based flow cytometry instrument. One thousand islets were collected using a 488/514 multi-line laser, and positive cells were sorted out for further analysis by confocal microscopy. The COPAS flow cytometry data were analyzed using CellQuest™ Pro software (BD Biosciences Immunocytometry Systems). Data are reported as mean fluorescent intensity (MFI).
Confocal microscopy: Stained islets were contained in a drop of PBS in a small Petri dish and protected from light before examination in the confocal microscope (Zeiss 510 Meta confocal, Carl Zeiss, Jena, Germany). Examination of the stained islets was performed using the 488-nm laser at 10× magnification. […]
FITC-labeled antibodies recognizing the following proteins were diluted and used according to the manufacturer's recommendations: Clq (AbCam, Cambridge, UK), C3c (for detection of C3b and iC3b), C4, C9, mannose-binding lectin (MBL), IgG, and IgM (DakoCytomation, Glostrup, Denmark). […] After washing, the islets were treated with 1% formaldehyde (Apoteket, Gothenburg, Sweden) and held on ice until analyzed by COPAS and confocal microscopy.

human islets [5] = assay: Lysis of islet cells, PI staining analysed by COPAS; format: cell-based; conditions: AB0-compatible plasma, 37° C., 30 minutes, 10 μM compstatin
Protocol: as §3, §1, §2

human islets [6] = assay: C-peptide release from human islets in AB0-compatible plasma (ELISA); format: cell-based; conditions: 30 minutes at 37° C., 10 μM compstatin
Protocol: as §1
After centrifugation and addition of 10 mM EDTA (final concentration), the supernatants were stored at −70° C. The remaining islets were washed twice in cold PBS as described above. In order to visualize necrotic cells, propidium iodide (PI) was added to the islets 5 minutes before COPAS analysis. Islets that had not been incubated in plasma were used as controls. The islets were also examined by confocal microscopy.
C-peptide: Plasma was diluted 1/200 and analyzed using a C-peptide ELISA (Mercodia, Uppsala, Sweden).

porcine islets = assay: Binding of C3b/iC3b to porcine islets incubated in human hirudin-treated plasma; format: cell-based, pig; conditions: compstatin 10 μM
Protocol: Treatment of porcine islets with human plasma: Approximately 1000 pig islets/40 μL of plasma (typically 5000 islets in 200 μL) were incubated in human hirudin-treated plasma in heparinized test tubes. Five different islet preparations and five different plasma preparations were used in these experiments. In some experiments, hirudin-treated plasma was preincubated with 10 μM (final concentration) of the potent compstatin analog, Ac-ICV(1MeW)[…]-NH2 (SEQ ID NO: 4; Katragadda et al., (2006) J Med. Chem. 49 (15): 4616), for 15 minutes at 37° C. before the islets were added. The mixture of islets and plasma was then incubated, with gentle shaking, at 37° C. for up to 30 min. […]
For all immunostaining experiments, the islets were incubated, while gently rotating on ice, for 30 minutes in the presence of an individual antibody. After being washed with PBS, the islets were treated with 1% formaldehyde (Apoteket, Gothenburg, Sweden) and kept on ice until analyzed.
Complex object parametric analyzer and sorter (COPAS) analysis: The fluorescence-stained islets were analyzed using a complex object parametric analyzer and sorter (COPAS; Union Biometrica, Somerville, Mass.), which is a large particle-based flow cytometry instrument previously used for islet analysis (Fernandez et al., (2005) Transplantation 80 (6): 729). […]

complement activation = assay: Complement inhibition assay in 10% human serum (bound C3 fragments in microtiter wells); format: biochemical
Protocol: Complement inhibition assay: One hundred microliters of 10% human serum (v/v), diluted in veronal buffer with 1 mM Ca^2+, 0.3 mM Mg^2+, 1% (w/v) BSA, and 0.05% (v/v) Tween 20, was incubated in the presence of serially diluted LMW-DS and/or compstatin in wells of microtiter plates for 30 minutes at 37° C. The wells were then washed with PBS containing 0.05% (v/v) Tween 20, and the bound C3 fragments were detected using […], of HRP-conjugated anti-C3c (Dako AS, Glostrup, Denmark).

IBMIR = test system: IBMIR
Protocol: Blood samples: All blood samples from monkeys were drawn from a femoral vein catheter at 0, 20, and 40 min and at 1, 3 and 24 h after transplantation. Blood was drawn from healthy human blood donors into 7-mL tubes containing […] of hirudin, a specific inhibitor of thrombin (Refludan; Pharmion Ltd, Cambridge, UK). To obtain plasma, the samples were centrifuged at 4500×g for 5 min. If not immediately analyzed for activated partial thromboplastin time (APTT), the samples were stored at −70° C.
Platelet counts and differential leukocyte counts were obtained using a Coulter ACT-diff analyzer (Beckman Coulter, Miami, Fla.) and EDTA-treated blood. Plasma levels of thrombin-antithrombin (TAT) were quantified using commercially available EIA kits (TAT, Behringswerke, Marburg, Germany). C3a generation was measured in plasma according to the method of Nilsson Ekdahl et al. ((1992) Scand J. Immunol. 35 (1): 85), and sC5b-9 was analyzed using a modification of the enzyme immunoassay described by Nilsson Ekdahl et al. ((1992) Scand J. Immunol. 35 (1): 85) and Mollnes et al. ((1995) Artif Organs 19 (9): 909).

porcine islet grafts [7] = assay: Immunohistochemical staining of grafted pig islets 24 h after intraportal transplantation
[8] = both treated monkeys compared to the controls

hirudin
generation of C3a and sC5b-9 (C3a and sC5b-9; islets in whole blood anticoagulated with hirudin, n=4): no effect

Heparin
ALT [1]: 116.8±47.7
AST [1]: 288.0±130.4
APTT ([2]; heparin-treated monkeys, throughout the whole study period): 25 to 40 s (s)
completely preserved islets (score 0 in all categories) (porcine islet grafts [3]; control monkey M-10): 22%

Ac-ICV(1MeW)QDWGAHRCT-NH2 [compstatin]
C3b/iC3b binding by confocal microscopy (human islets [4]; human islets in plasma, 5 and 30 minutes): totally prevented
binding of C3b/iC3b to the islets (human islets [4]; human islets, AB0-compatible plasma, compstatin 10 μM, COPAS): significantly reduced; also recorded: abolished
generation of fluid-phase complement activation products (C3a, sC5b-9) (C3a and sC5b-9; human islets, AB0-compatible plasma, compstatin 10 μM): abrogated
PI staining (lysis of islet cells) (human islets [5]): totally abrogated
release of C-peptide (human islets [6]): totally inhibited
binding of C3b/iC3b to the islets (porcine islets): significantly reduced
inhibition of complement activation (complement activation; compstatin 5 μM): total inhibition
inhibition of complement activation (complement activation; compstatin above 0.5 μM): gradually inhibited
inhibition of complement activation (complement activation; compstatin below 0.5 μM): no effect

Low molecular weight dextran sulfate [LMW-DS]
APTT ([2]; LMW-DS-treated monkeys, 15 minutes after islet infusion): around 100 s
APTT ([2]; monkey M-5, after 24 hours): 101 s
APTT ([2]; monkey M-7, after 24 hours): 66 s
APTT ([2]; monkey M-9, after 24 hours): 107 s
increase of coagulation marker TAT (IBMIR; LMW-DS-treated monkeys vs heparin controls): effectively inhibited
complement activation parameter C3a (IBMIR; [8]): suppressed
complement activation parameter sC5b-9 (IBMIR; [8]): suppressed
TAT (IBMIR; monkey M-5): totally suppressed
inhibition of complement activation (complement activation; LMW-DS above 100 mg/L, absence of compstatin): more pronounced
inhibition of complement activation (complement activation; LMW-DS between 10 and 100 mg/L, absence of compstatin): only marginally
histology of the transplanted grafts (porcine islet grafts [3]; 24 h after transplantation, semiquantitative scoring): well kept
completely preserved islets (score 0 in all categories) (porcine islet grafts [3]; monkey M-6 as printed): 37.2%
completely preserved islets (score 0 in all categories) (porcine islet grafts [3]; monkey M-9): 44%
deposition of C3 fragment and C9 on the surface of the islets (porcine islet grafts [7]; 24 h grafts): no clear inhibition
CD3+ T cell infiltration (porcine islet grafts [7]; vs controls M8 and M10): effectively suppressed
CD68+ macrophages in grafts (porcine islet grafts [7]; vs heparin controls, p=0.002): abrogated
neutrophil elastase positive PMNs in grafts (porcine islet grafts [7]; vs heparin controls, p=0.04): abrogated
CD41+ platelets in grafts (porcine islet grafts [7]; vs heparin controls, p=0.056): abrogated

Reference: patent US20110008343A1, “Method Of Reducing Tissue Loss In Pancreatic Islet Cell Transplantation” (priority 2007, published 2011)
